Tests used:
[1] = target: T1, receptors CXCR4 (Homo sapiens, UniProt P61073); experiment: Inhibition of 125I-SDF-1 binding to CXCR4 on MT4 cells; conditions: 125I-SDF-1 ligand, 2 hours under ice-cooling, read-out: Inhibition rate (binding-inhibition %)
T1 construct: endogenous in cells; host or cells: MT4 cells
Protocol: MT4 cells (5×10^6/0.2 ml/well) were cultured on a 24-well microtiter plate. After the cells were incubated for 24 hours at 37° C. in a carbon dioxide gas incubator, a culture medium was replaced with a buffer solution (0.1% BSA-containing RPMI-1640). Together with a ligand (^125I-SDF-1″, specific activity: 2,200 Ci/mmol; manufactured by Daiichi Chemicals Co., Ltd. (Tokyo)), test materials of various concentrations were subjected to a binding reaction for 2 hours under ice-cooling.

[2] = system: HIV-1IIIB infected MT-4 cells; experiment: Antiviral activity in HIV-1IIIB infected MT-4 cells (MTT method); type: cell-based; conditions: Human immunodeficiency virus 1, MT4, 120 h, MOI 0.01, MT-4 cells, 5 days, read-out: EC50 (concentration required for inhibition of cell disorder due to HIV infection by 50%)
Protocol: Immediately after infection, HIV-1IIIB infected MT-4 cells (3.0×10^4/well, MOI (Multiplicity of infection): 0.01) were added to a 96-well microtiter plate together with the test compounds having different concentrations. The cells were cultured in a carbon dioxide incubator at 37° C. for 5 days, and the number of living cells was measured in accordance with the MTT (tetrazolium) method ([…] et al., J. of Virol. Method, 20, 309-321 (1988)). The antiviral activity is represented the concentration required for inhibition of cell disorder due to HIV infection by 50% (EC50: 50% Effective Concentration), and expressed using μM, and the results are shown in Table 2.

[3] = system: ICR mice (male); conditions: mouse, in vivo, 4 days
Protocol: The acute toxicity of the aforementioned compound was examined. Specifically, 7-week-old ICR mice (male) were divided into several groups (4 or 5 mice in each group), and the mice were bred for 1 week for habituation. Subsequently, each of the compounds of Examples was dissolved in distilled water or physiological saline, and the solution was administered to the mice via tail vein (dose: 15 mg/kg) twice a day for 4 days. On the fifth day, dead mice were counted.

T1 sequence (P61073 whole entry): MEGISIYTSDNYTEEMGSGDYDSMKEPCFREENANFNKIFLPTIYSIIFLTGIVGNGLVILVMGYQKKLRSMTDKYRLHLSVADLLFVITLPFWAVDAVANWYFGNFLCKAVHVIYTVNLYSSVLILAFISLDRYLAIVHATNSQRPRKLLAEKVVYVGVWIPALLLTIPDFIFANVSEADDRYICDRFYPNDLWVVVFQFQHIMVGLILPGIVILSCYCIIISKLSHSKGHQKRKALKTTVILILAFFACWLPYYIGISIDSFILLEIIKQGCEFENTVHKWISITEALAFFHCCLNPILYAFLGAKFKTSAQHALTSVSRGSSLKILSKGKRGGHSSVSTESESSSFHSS

Compound	inhibition at 0.1 µM [1]	EC50 [2]	Dead mice/test mice [3]
Cc1ccccc1CNCCC[C@H](NC(=O)c1ccc(CNCc2ncc[nH]2)cc1)C(=O)N[C@@H](C)c1cccc2ccccc12 [Compound No. 1, N-[(S)-1-(1-naphthyl)ethyl]-5-(2-methylbenzyl)amino-2-(S)-[4-[N-(imidazol-2-ylmethyl)aminomethyl]benzoyl]aminopentanoylamide]	100%	58 nM	–
C[C@H](NC(=O)[C@H](CCCNC1CCCCC1)NC(=O)c1ccc(CNCc2ncc[nH]2)cc1)c1cccc2ccccc12 [Compound No. 27, N-[(S)-1-(1-naphthyl)ethyl]-5-cyclohexylamino-2-(S)-[4-[N-(imidazol-2-ylmethyl)aminomethyl]benzoyl]aminopentanoylamide]	97%	–	–
C/N=C(\N)SCCC[C@H](NC(=O)c1ccc(CNCc2ccccn2)cc1)C(=O)N[C@@H](C)c1cccc2ccccc12 [Compound No. 74, N-[(S)-1-(1-naphthyl)ethyl]-5-(N-methylsulfinamidino)-2-(S)-[4-[N-(pyridin-2-ylmethyl)aminomethyl]benzoyl]aminopentanoylamide]	–	46.1 nM	0/5
C[C@H](NC(=O)[C@H](CCCNC1CCc2ccccc21)NC(=O)c1ccc(CNCc2ncc[nH]2)cc1)c1cccc2ccccc12 (stereo partly drawn) [Compound No. 29, N-[(S)-1-(1-naphthyl)ethyl]-5-(indan-1-yl)amino-2-(S)-[4-[N-(imidazol-2-ylmethyl)aminomethyl]benzoyl]aminopentanoylamide]	100%	–	0/5
Cc1cccnc1CNCCC[C@H](NC(=O)c1ccc(CNCc2ncc[nH]2)cc1)C(=O)N[C@@H](C)c1cccc2ccccc12 [Compound No. 9, N-[(S)-1-(1-naphthyl)ethyl]-5-(3-methylpyridin-2-yl)methylamino-2-(S)-[4-[N-(imidazol-2-ylmethyl)aminomethyl]benzoyl]aminopentanoylamide]	–	55.3 nM	0/5
C[C@H](NC(=O)[C@H](CCCSC(=N)N)NC(=O)c1ccc(CNCc2ccccn2)cc1)c1cccc2ccccc12 [Compound No. 73, N-[(S)-1-(1-naphthyl)ethyl]-5-sulfinamidino-2-(S)-[4-[N-(pyridin-2-ylmethyl)aminomethyl]benzoyl]aminopentanoylamide]	93.5%	69.1 nM	0/5
CCCN(CCC)CCC[C@H](NC(=O)c1ccc(CNCc2ncc[nH]2)cc1)C(=O)N[C@@H](C)c1cccc2ccccc12 [Compound No. 34, N-[(S)-1-(1-naphthyl)ethyl]-5-di-n-propylamino-2-(S)-[4-[N-(imidazol-2-ylmethyl)aminomethyl]benzoyl]aminopentanoylamide]	98%	15 nM	0/5
COc1ccccc1CNCCC[C@H](NC(=O)c1ccc(CNCc2ncc[nH]2)cc1)C(=O)N[C@@H](C)c1cccc2ccccc12 [Compound No. 2, N-[(S)-1-(1-naphthyl)ethyl]-5-(2-methoxybenzyl)amino-2-(S)-[4-[N-(imidazol-2-ylmethyl)aminomethyl]benzoyl]aminopentanoylamide]	97.6%	99.6 nM	–
CCc1ccccc1CNCCC[C@H](NC(=O)c1ccc(CNCc2ncc[nH]2)cc1)C(=O)N[C@@H](C)c1cccc2ccccc12 [Compound No. 22, N-[(S)-1-(1-naphthyl)ethyl]-5-(2-ethylbenzyl)amino-2-(S)-[4-[N-(imidazol-2-ylmethyl)aminomethyl]benzoyl]aminopentanoylamide]	–	30 nM	–
C[C@H](NC(=O)[C@H](CCCN(C)C1CCCCC1)NC(=O)c1ccc(CNCc2ncc[nH]2)cc1)c1cccc2ccccc12 [Compound No. 42, N-[(S)-1-(1-naphthyl)ethyl]-5-(N-methyl-cyclohexylamino)-2-(S)-[4-[N-(imidazol-2-ylmethyl)aminomethyl]benzoyl]aminopentanoylamide]	–	14.5 nM	0/5
CC(C)CN(CCC[C@H](NC(=O)c1ccc(CNCc2ncc[nH]2)cc1)C(=O)N[C@@H](C)c1cccc2ccccc12)CC(C)C [Compound No. 33, N-[(S)-1-(1-naphthyl)ethyl]-5-diisobutylamino-2-(S)-[4-[N-(imidazol-2-ylmethyl)aminomethyl]benzoyl]aminopentanoylamide]	100%	6.7 nM	0/5
C[C@H](NC(=O)[C@H](CCCNC1CCCc2ccccc21)NC(=O)c1ccc(CNCc2ncc[nH]2)cc1)c1cccc2ccccc12 (stereo partly drawn) [Compound No. 28, N-[(S)-1-(1-naphthyl)ethyl]-5-(1,2,3,4-tetrahydronaphthalen-1-yl)amino-2-(S)-[4-[N-(imidazol-2-ylmethyl)aminomethyl]benzoyl]aminopentanoylamide]	100%	–	–
CC(C)CN(CCO)CCC[C@H](NC(=O)c1ccc(CNCc2ncc[nH]2)cc1)C(=O)N[C@@H](C)c1cccc2ccccc12 [Compound No. 66, N-[(S)-1-(1-naphthyl)ethyl]-5-(N-isobutyl-(2-hydroxyethyl)amino)-2-(S)-[4-[N-(imidazol-2-ylmethyl)aminomethyl]benzoyl]aminopentanoylamide]	90.6%	20 nM	0/5
CCCN(CCC[C@H](NC(=O)c1ccc(CNCc2ncc[nH]2)cc1)C(=O)N[C@@H](C)c1cccc2ccccc12)CC(C)C [Compound No. 39, N-[(S)-1-(1-naphthyl)ethyl]-5-(N-n-propyl-isobutylamino)-2-(S)-[4-[N-(imidazol-2-ylmethyl)aminomethyl]benzoyl]aminopentanoylamide]	–	14.5 nM	0/5
C[C@H](NC(=O)[C@H](CCCN1CCCCCC1)NC(=O)c1ccc(CNCc2ncc[nH]2)cc1)c1cccc2ccccc12 [Compound No. 55, N-[(S)-1-(1-naphthyl)ethyl]-5-(hexamethyleneimin-1-yl)-2-(S)-[4-[N-(imidazol-2-ylmethyl)aminomethyl]benzoyl]aminopentanoylamide]	89.3%	29 nM	0/5

Reference: patent US20040254221A1, “Novel Nitrogenous Compound and use thereof” (priority 2001, published 2004)
